{
  "source": "patent US20200253877A1",
  "about": "“GEMCABENE, PHARMACEUTICALLY ACCEPTABLE SALTS THEREOF, COMPOSITIONS THEREOF AND METHODS OF USE THEREFOR” (NEUROBO PHARMACEUTICALS, INC., priority 2018, published 2020)",
  "key": {"[1]": {"tested_on": "patients with familial hypercholesterolemia (FH)", "assay": "Open-label escalating-dose study (300, 600, 900 mg) in familial hypercholesterolemia patients on stable lipid-lowering therapy: LDL-C", "format": "in vivo, human", "details": "Patient 1", "experimental": "A study was performed to evaluate the efficacy of film-coated Tablet D in treating patients with familial hypercholesterolemia (FH) and who are on stable, lipid-lowering therapy. Male and female patients ≥17 years of age who had been diagnosed with FH by genetic confirmation or a clinical diagnosis based on either (1) a history of an untreated LDL-C concentration ≥500 mg/dl (12.92 mmol/L) together with either appearance of xanthoma before 10 years of age, or evidence of familial hypercholesterolemia in both parents or (2) LDL-C >300 mg/dl (7.76 mmol/L) on maximally tolerated lipid-lowering drug therapy were enrolled in the study.\nThe study was a 3-period, 3-treatment study using successively escalating doses of 300 mg, 600 mg, and 900 mg gemcabene calcium salt hydrate Crystal Form 1 (PSD90=52 μm). All patients were on each of the successive doses for 4 weeks at a time. Patients remained on their stable, lipid-lowering therapy throughout the study.\nEach patient received one 300 mg gemcabene calcium salt hydrate Crystal Form 1 tablet (film-coated Tablet D) orally QD (alternatively written as q.d.; meaning “once a day”) for 4 weeks. The same patients then received 600 mg gemcabene calcium salt hydrate Crystal Form 1 orally QD for 4 weeks. The 600 mg dose consisted of two 300-mg tablets (film-coated Tablet D×2). […]\nLDL-C values were measured after the patient had been administered film-coated Tablet D for 2 weeks for each dosing level and on the last day of each dose. For each escalated dose, percent change from baseline in LDL-C was calculated using the baseline LDL-C value and the final LDL-C value measured for each dose. […]\nThis was an open-label, dose-finding, 3-period, 3-treatment study using successively escalating doses of 300 mg, 600 mg, and 900 mg gemcabene calcium salt hydrate Crystal Form 1 having PSD90 of 52 μm in patients clinically diagnosed with familial hypercholesterolemia (FH). […] Plasma from these samples were analyzed for gemcabene concentrations and the data used for PK analysis. […]"}, "[2]": {"tested_on": "patients with hypercholesterolemia on stable statin therapy", "assay": "12-week placebo-controlled study of 600 mg QD in hypercholesterolemia patients on moderate and high-intensity statins: atherogenic and inflammatory biomarkers", "format": "in vivo, human", "experimental": "High-risk patients including some, but not all those with heterozygous familial hypercholesterolemia (HeFH) or atherosclerotic cardiovascular disease (ASCVD) on appropriate diet and stable statin therapy for at least 12 weeks and LDL-C ≥100 mg/dL (2.59 mmol/L) and triglycerides <500 mg/dL (5.65 mmol/L) were randomized into a 12-week, placebo-controlled, parallel-group, double-blind study to assess the efficacy of gemcabene calcium salt hydrate Crystal Form 1 (PSD90=52 μm) 600 mg (300-mg film-coated Tablet D×2) QD on LDL-C and other lipoproteins and hsCRP (high-sensitivity C-reactive protein). Safety and tolerability were also evaluated. The patients were stratified by high- or moderate-intensity statin therapy, with or without ezetimibe, with a target of 52 patients (26 patients on 600 mg gemcabene calcium salt hydrate Crystal Form 1 as administered by 2×film-coated Tablet D and 26 patients on placebo (“placebo”)) in each stratum. […] Mean baseline LDL-C for all patients was approximately 134 mg/dL (3.48 mmol/L) with most patients in the high-intensity statin stratum on atorvastatin and most patients in the moderate-intensity stratum on either simvastatin or atorvastatin.\nThe aim of this study was to characterize gemcabene calcium salt hydrate Crystal Form 1's safety and tolerability and to determine gemcabene calcium salt hydrate Crystal Form 1's additive impact to statins on serum biomarker including atherogenic biomarkers (LDL-C, non-HDL-C, ApoB, ApoE, and triglyceride (TG)) and inflammatory biomarkers (hsCRP, serum amyloid A (SAA)).\nFifty patients (24 patients on 600 mg (Tablet D×2); 26 placebo) on baseline high-intensity (HI) statins received atorvastatin 40 mg or 80 mg QD; or rosuvastatin 20 mg or 40 mg QD. Fifty-five patients (29 patients on 600 mg GEM; 26 placebo) on baseline moderate-intensity (MI) statins received atorvastatin 10 mg or 20 mg QD; rosuvastatin 5 mg or 10 mg QD; or simvastatin 20 or 40 mg QD. Baseline LDL-C was 127 mg/dL and 134 mg/dL in the MI statin and HI statin stratum, respectively.\nWithin the study population, an analysis was performed in a subpopulation of patients having mixed dyslipidemia (LDL-C ≥100 mg/dL and triglycerides ≥200 and <500 mg/dL). Eighteen patients (10 (film-coated Tablet D×2) patients and 8 placebo patients) having a baseline mean LDL-C level of 142 mg/dL, baseline mean triglyceride level of 247 mg/dL and BMI of 34 kg/m^2 were analyzed (FIG. 48). Although not measured in the subpopulation of this Example, some cardiometabolic patients could have elevated sulphatase-2 (Sulf-2) levels, which are believed to cause reduced Syndecan-1 (also known as “remnant receptor”)-mediated clearance of atherogenic remnant lipoproteins. Without being bound by theory, the data shown in FIG. 48 support the inventors' belief that administration of film-coated Tablet D, which comprises a compound of the invention, rescues remnant receptor activity."}, "[3]": {"details": "patients with mixed dyslipidemia, 600 mg QD on statins (FIG. 48)"}},
  "data": [
    {"smiles": "CC(C)(CCCCOCCCCC(C)(C)C(=O)O)C(=O)O.[Ca]", "note": "[6-(5-Carboxy-5-methyl-hexyloxy)-2,2-dimethylhexanoic acid calcium]", "values": [
      {"measurement": "LDL-C reduction compared to baseline", "setting": "[1]; 300 mg oral QD, 4 weeks", "result": 55.2, "unit": "%"},
      {"measurement": "LDL-C reduction compared to baseline", "setting": "[1]; 600 mg oral QD, 8 weeks", "result": 49.8, "unit": "%"},
      {"measurement": "LDL-C reduction compared to baseline", "setting": "[1]; 900 mg oral QD, 12 weeks", "result": 54.5, "unit": "%"},
      {"measurement": "atherogenic and inflammatory markers", "setting": "[2]; hypercholesterolemia patients on MI and HI statins, 600 mg QD, 12 weeks", "result": "significant reductions"},
      {"measurement": "reduction in ApoB", "setting": "[2]; [3]", "result": 26, "unit": "%"},
      {"measurement": "reduction in ApoE", "setting": "[2]; [3]", "result": 34, "unit": "%"},
      {"measurement": "reduction in LDL-C", "setting": "[2]; [3]", "result": 23, "unit": "%"},
      {"measurement": "reduction in TG", "setting": "[2]; [3]", "result": 33, "unit": "%"},
      {"measurement": "reduction in non-HDL-C", "setting": "[2]; [3]", "result": 19, "unit": "%"}
    ]}
  ]
}
